The test system of this data set is VCaP cells. The data set is described as follows: Cytotoxicity assessment (Cell-titer-glo cell viability), VCaP. Conditions: read-out: VCaP (CC50); VCaP cells, 6 days of treatment, Cell-titer-glo, vs DMSO.
Procedure: In order to evaluate the androgen receptor (AR) cytotoxicity of the compounds according to the present invention, the following experiment was conducted. Specifically, 1.5×10^3 (LNCaP) or 4×10^3 (VCaP, 22RV1), respectively, of LNCaP, VCaP, and 22RV1 cells were injected into each well of a 96-well plate. The next day, each well was treated with the compound at a final concentration of 3 nM, 10 nM, 30 nM, 100 nM, 300 nM, 1 μM, 3 μM, and 10 μM. […] After 6 days of treatment, Cell-titer-glo (promega) was treated and reacted for 10 minutes, and cell viability was measured with a multimode plate reader (PerkinElmer, Inc.), and the change was quantified compared to when DMSO was treated.
For the compound `CC1(C)C(NC(=O)c2ccc(-n3cc(CC4CCN(C(=O)C5CCN(c6ccc7nnn(C8CCC(=O)NC8=O)c(=O)c7c6)CC5)CC4)nn3)cc2)C(C)(C)C1Oc1ccc(C#N)c(Cl)c1` (centres unmarked) [Example 104, N-((1r,3r)-3-(3-chloro-4-cyanophenoxy)-2,2,4,4-tetramethylcyclobutyl)-4-(4-((1-(1-(3-(2,6-dioxopiperidin-3-yl)-4-oxo-3,4-dihydrobenzo[d][1,2,3]triazin-6-yl)piperidine-4-carbonyl)piperidin-4-yl)methyl)-1H-1,2,3-triazol-1-yl)benzamide], the CC50 came out at 0.0169 µM.

Consider `CC1(C)C(NC(=O)c2cnc(N3CCN(CC4CCN(C(=O)CNc5ccc6nnn(C7CCC(=O)NC7=O)c(=O)c6c5)CC4)CC3)nc2)C(C)(C)C1Oc1ccc(C#N)c(Cl)c1` (centres unmarked) [Example 147, N-((1r,3r)-3-(3-chloro-4-cyanophenoxy)-2,2,4,4-tetramethylcyclobutyl)-2-(4-((1-((3-(2,6-dioxopiperidin-3-yl)-4-oxo-3,4-dihydrobenzo[d][1,2,3]triazin-6-yl)glycyl)piperidin-4-yl)methyl)piperazin-1-yl)pyrimidine-5-carboxamide], for which the CC50 was about 0.01 µM.

For the compound `CC1(C)C(NC(=O)c2ccc(-c3cnn(C4CCN(CC5CCN(C(=O)C6CCN(c7ccc8nnn(C9CCC(=O)NC9=O)c(=O)c8c7)CC6)CC5)CC4)c3)nc2)C(C)(C)C1Oc1ccc(C#N)c(Cl)c1` (centres unmarked) [Example 124, N-((1r,3r)-3-(3-chloro-4-cyanophenoxy)-2,2,4,4-tetramethylcyclobutyl)-6-(1-(1-((1-(1-(3-(2,6-dioxopiperidin-3-yl)-4-oxo-3,4-dihydrobenzo[d][1,2,3]triazin-6-yl)piperidine-4-carbonyl)piperidin-4-yl)methyl)piperidin-4-yl)-1H-pyrazol-4-yl)nicotinamide], the CC50 came out at 0.013 µM.

Consider `CC1(C)[C@H](NC(=O)c2ccc(-n3cc(CNc4ccc5nnn(C6CCC(=O)NC6=O)c(=O)c5c4)nn3)cc2)C(C)(C)[C@H]1Oc1ccc(C#N)c(Cl)c1` (some centres unmarked) [Example 149, N-((1r,3r)-3-(3-chloro-4-cyanophenoxy)-2,2,4,4-tetramethylcyclobutyl)-4-(4-(((3-(2,6-dioxopiperidin-3-yl)-4-oxo-3,4-dihydrobenzo[d][1,2,3]triazin-6-yl)amino)methyl)-1H-1,2,3-triazol-1-yl)benzamide], for which the CC50 is over 10 µM.

As to `CC1(C)C(NC(=O)c2ccc(-n3cc(CN4CCN(c5ccc6nnn(C7CCC(=O)NC7=O)c(=O)c6c5)CC4)nn3)cc2)C(C)(C)C1Oc1ccc(C#N)c(Cl)c1` (centres unmarked) [Example 120, N-((1r,3r)-3-(3-chloro-4-cyanophenoxy)-2,2,4,4-tetramethylcyclobutyl)-4-(4-((4-(3-(2,6-dioxopiperidin-3-yl)-4-oxo-3,4-dihydrobenzo[d][1,2,3]triazin-6-yl)piperazin-1-yl)methyl)-1H-1,2,3-triazol-1-yl)benzamide], the CC50 was found to be 0.0297 µM.

Regarding `CC1(C)C(NC(=O)c2ccc(N3CC4CN(C(=O)COc5ccc6nnn(C7CCC(=O)NC7=O)c(=O)c6c5)CC4C3)cc2)C(C)(C)C1Oc1ccc(C#N)c(Cl)c1` (centres unmarked) [Example 135, N-((1r,3r)-3-(3-chloro-4-cyanophenoxy)-2,2,4,4-tetramethylcyclobutyl)-4-(5-(2-((3-(2,6-dioxopiperidin-3-yl)-4-oxo-3,4-dihydrobenzo[d][1,2,3]triazin-6-yl)oxy)acetyl)hexahydropyrrolo[3,4-c]pyrrol-2(1H)-yl)benzamide], the CC50 was about 0.01 µM.

For the compound `CC1(C)C(NC(=O)c2ccc(C#CC3CCN(CC4CCN(C(=O)C5CN(c6ccc7nnn(C8CCC(=O)NC8=O)c(=O)c7c6)C5)CC4)CC3)cc2)C(C)(C)C1Oc1ccc(C#N)c(Cl)c1` (centres unmarked) [Example 96, N-((1r,3r)-3-(3-chloro-4-cyanophenoxy)-2,2,4,4-tetramethylcyclobutyl)-4-((1-((1-(1-(3-(2,6-dioxopiperidin-3-yl)-4-oxo-3,4-dihydrobenzo[d][1,2,3]triazin-6-yl)azetidine-3-carbonyl)piperidin-4-yl)methyl)piperidin-4-yl)ethynyl)benzamide], the 50% cytotoxic concentration (CC50) turned out to be 0.00803 µM.

On to `CC1(C)C(NC(=O)c2ccc(-n3cc(CN4CCN(C(=O)C5CCN(c6ccc7nnn(C8CCC(=O)NC8=O)c(=O)c7c6)CC5)CC4)nn3)cc2)C(C)(C)C1Oc1ccc(C#N)c(Cl)c1` (centres unmarked) [Example 121, N-((1r,3r)-3-(3-chloro-4-cyanophenoxy)-2,2,4,4-tetramethylcyclobutyl)-4-(4-((4-(1-(3-(2,6-dioxopiperidin-3-yl)-4-oxo-3,4-dihydrobenzo[d][1,2,3]triazin-6-yl)piperidine-4-carbonyl)piperazin-1-yl)methyl)-1H-1,2,3-triazol-1-yl)benzamide], for which the CC50 came out at 0.018 µM.

On to `CC1(C)C(NC(=O)c2ccc(C#CCC3CCN(CC4CCN(C(=O)C5CCN(c6ccc7nnn(C8CCC(=O)NC8=O)c(=O)c7c6)CC5)CC4)CC3)nc2)C(C)(C)C1Oc1ccc(C#N)c(Cl)c1` (centres unmarked) [Example 126, N-((1r,3r)-3-(3-chloro-4-cyanophenoxy)-2,2,4,4-tetramethylcyclobutyl)-6-(3-(1-((1-(1-(3-(2,6-dioxopiperidin-3-yl)-4-oxo-3,4-dihydrobenzo[d][1,2,3]triazin-6-yl)piperidine-4-carbonyl)piperidin-4-yl)methyl)piperidin-4-yl)prop-1-yn-1-yl)nicotinamide], for which the CC50 stood at 0.04 µM.

As for `CC1(C)C(NC(=O)c2ccc(-n3cc(CCNC(=O)CNc4ccc5nnn(C6CCC(=O)NC6=O)c(=O)c5c4)nn3)cc2)C(C)(C)C1Oc1ccc(C#N)c(Cl)c1` (centres unmarked) [Example 156, N-((1r,3r)-3-(3-chloro-4-cyanophenoxy)-2,2,4,4-tetramethylcyclobutyl)-4-(4-(2-(2-((3-(2,6-dioxopiperidin-3-yl)-4-oxo-3,4-dihydrobenzo[d][1,2,3]triazin-6-yl)amino)acetamido)ethyl)-1H-1,2,3-triazol-1-yl)benzamide], the CC50 is 0.936 µM.

For `CC1(C)C(NC(=O)c2ccc(-n3cc(CCNc4ccc5nnn(C6CCC(=O)NC6=O)c(=O)c5c4)nn3)cc2)C(C)(C)C1Oc1ccc(C#N)c(Cl)c1` (centres unmarked) [Example 153, N-((1r,3r)-3-(3-chloro-4-cyanophenoxy)-2,2,4,4-tetramethylcyclobutyl)-4-(4-(2-((3-(2,6-dioxopiperidin-3-yl)-4-oxo-3,4-dihydrobenzo[d][1,2,3]triazin-6-yl)amino)ethyl)-1H-1,2,3-triazol-1-yl)benzamide], the CC50 was found to be 0.0454 µM.

In the case of `CC1(C)C(NC(=O)c2ccc(-n3cc(CN4CCN(C(=O)C5CN(c6ccc7nnn(C8CCC(=O)NC8=O)c(=O)c7c6)C5)CC4)nn3)cc2)C(C)(C)C1Oc1ccc(C#N)c(Cl)c1` (centres unmarked) [Example 122, N-((1r,3r)-3-(3-chloro-4-cyanophenoxy)-2,2,4,4-tetramethylcyclobutyl)-4-(4-((4-(1-(3-(2,6-dioxopiperidin-3-yl)-4-oxo-3,4-dihydrobenzo[d][1,2,3]triazin-6-yl)azetidine-3-carbonyl)piperazin-1-yl)methyl)-1H-1,2,3-triazol-1-yl)benzamide], the CC50 is 0.018 µM.

As for `CC1(C)C(NC(=O)c2ccc(C#CCC3CCN(CC4CCN(C(=O)C5CCN(c6ccc7nnn(C8CCC(=O)NC8=O)c(=O)c7c6)CC5)CC4)CC3)cc2)C(C)(C)C1Oc1ccc(C#N)c(Cl)c1` (centres unmarked) [Example 116, N-((1r,3r)-3-(3-chloro-4-cyanophenoxy)-2,2,4,4-tetramethylcyclobutyl)-4-(3-(1-((1-(1-(3-(2,6-dioxopiperidin-3-yl)-4-oxo-3,4-dihydrobenzo[d][1,2,3]triazin-6-yl)piperidine-4-carbonyl)piperidin-4-yl)methyl)piperidin-4-yl)prop-1-yn-1-yl)benzamide], the CC50 amounted to 0.0161 µM.

With `CC1(C)C(NC(=O)c2ccc(C#CC3CCN(CC4CCN(C(=O)C5CCN(c6ccc7nnn(C8CCC(=O)NC8=O)c(=O)c7c6)CC5)CC4)CC3)nc2)C(C)(C)C1Oc1ccc(C#N)c(Cl)c1` (centres unmarked) [Example 131, N-((1r,3r)-3-(3-chloro-4-cyanophenoxy)-2,2,4,4-tetramethylcyclobutyl)-6-((1-((1-(1-(3-(2,6-dioxopiperidin-3-yl)-4-oxo-3,4-dihydrobenzo[d][1,2,3]triazin-6-yl)piperidine-4-carbonyl)piperidin-4-yl)methyl)piperidin-4-yl)ethynyl)nicotinamide], the CC50 is 0.0185 µM.

For the compound `CC1(C)C(NC(=O)c2ccc(C#CC3CCN(CC4CCN(C(=O)COc5ccc6nnn(C7CCC(=O)NC7=O)c(=O)c6c5)CC4)CC3)nc2)C(C)(C)C1Oc1ccc(C#N)c(Cl)c1` (centres unmarked) [Example 133, N-((1r,3r)-3-(3-chloro-4-cyanophenoxy)-2,2,4,4-tetramethylcyclobutyl)-6-((1-((1-(2-((3-(2,6-dioxopiperidin-3-yl)-4-oxo-3,4-dihydrobenzo[d][1,2,3]triazin-6-yl)oxy)acetyl)piperidin-4-yl)methyl)piperidin-4-yl)ethynyl)nicotinamide], the CC50 worked out at 0.015 µM.

As to `CC1(C)C(NC(=O)c2ccc(C#CCC3CCN(CC4CCN(c5ccc6nnn(C7CCC(=O)NC7=O)c(=O)c6c5)CC4)CC3)nc2)C(C)(C)C1Oc1ccc(C#N)c(Cl)c1` (centres unmarked) [Example 129, N-((1r,3r)-3-(3-chloro-4-cyanophenoxy)-2,2,4,4-tetramethylcyclobutyl)-6-(3-(1-((1-(3-(2,6-dioxopiperidin-3-yl)-4-oxo-3,4-dihydrobenzo[d][1,2,3]triazin-6-yl)piperidin-4-yl)methyl)piperidin-4-yl)prop-1-yn-1-yl)nicotinamide], the CC50 was 0.0194 µM.

Regarding `CC1(C)C(NC(=O)c2ccc(N3CC4CN(CC5CCN(C(=O)COc6ccc7nnn(C8CCC(=O)NC8=O)c(=O)c7c6)CC5)CC4C3)cc2)C(C)(C)C1Oc1ccc(C#N)c(Cl)c1` (centres unmarked) [Example 137, N-((1r,3r)-3-(3-chloro-4-cyanophenoxy)-2,2,4,4-tetramethylcyclobutyl)-4-(5-((1-(2-((3-(2,6-dioxopiperidin-3-yl)-4-oxo-3,4-dihydrobenzo[d][1,2,3]triazin-6-yl)oxy)acetyl)piperidin-4-yl)methyl)hexahydropyrrolo[3,4-c]pyrrol-2(1H)-yl)benzamide], the CC50 was found to be 0.094 µM.

The record behind these values is patent US20240018123A1, “COMPOUND FOR INHIBITING OR DISINTEGRATING ANDROGEN RECEPTOR, AND PHARMACEUTICAL USE THEREOF” (KOREA RESEARCH INSTITUTE OF CHEMICAL TECHNOLOGY, priority 2020, published 2024).
